#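 Interpolation was linear, between the two tested concentrations surrounding the appropriate level; five concentrations were tested over 48 hours in 96-well plates. GI50 = concentration required for 50% inhibition of growth.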 Activity calls are given as the source filed them. No stated cut-off is given here; in the data, active = GI50 up to about 1.1 µM and inactive = higher.
# Legend:
# Assay in all cases: NCI tumour cell line growth inhibition, 48 h
# HL-60 = system: HL-60
# IGROV-1 = system: IGROV-1
# RXF 393 = system: RXF 393
# MDA-N = system: MDA-N
# UO-31 = system: UO-31
# A498 = system: A498
# SF-268 = system: SF-268
# BT-549 = system: BT-549
# NCI-H23 = system: NCI-H23
# ACHN = system: ACHN
# COLO 205 = system: COLO 205
# LXFL 529 = system: LXFL 529
# MCF7 = system: MCF7
# NCI-H460 = system: NCI-H460
# SR = system: SR
# KM12 = system: KM12
# Malme-3M = system: Malme-3M
# NCI-H226 = system: NCI-H226
# MDA-MB-231 = system: MDA-MB-231
# T47D = system: T47D
SMILES,GI50 (HL-60),GI50 (IGROV-1),GI50 (RXF 393),GI50 (MDA-N),GI50 (UO-31),GI50 (A498),GI50 (SF-268),GI50 (BT-549),GI50 (NCI-H23),GI50 (ACHN),GI50 (COLO 205),GI50 (LXFL 529),GI50 (MCF7),GI50 (NCI-H460),GI50 (SR),GI50 (KM12),GI50 (Malme-3M),GI50 (NCI-H226),GI50 (MDA-MB-231),GI50 (T47D)
CCN(CC)CC(O)CNc1ccc(NCC2CO2)c2c1C(=O)c1ccccc1C2=O (stereo not drawn),0.0236 µM (active),1.63 µM (inactive),0.397 µM (active),0.323 µM (active),0.594 µM (active),3.51 µM (inactive),0.0619 µM (active),0.194 µM (active),0.499 µM (active),0.144 µM (active),0.906 µM (active),0.0486 µM (active),0.0109 µM (active),0.695 µM (active),0.055 µM (active),0.294 µM (active),1.93 µM (inactive),1.32 µM (inactive),0.536 µM (active),–
C=C(CN(C)C)C(=O)c1ccccc1C,5.52 µM (inactive),> 100 µM (inactive),12.9 µM (inactive),–,37.4 µM (inactive),> 100 µM (inactive),77.1 µM (inactive),–,> 100 µM (inactive),24.7 µM (inactive),15.5 µM (inactive),15.7 µM (inactive),–,> 100 µM (inactive),14.2 µM (inactive),> 100 µM (inactive),17.9 µM (inactive),> 100 µM (inactive),–,–
O=C(N/C=C1\C(=O)Oc2ccccc2C1=O)Nc1ccccc1,> 100 µM (inactive),51.2 µM (inactive),16.7 µM (inactive),–,28.3 µM (inactive),35.3 µM (inactive),31.8 µM (inactive),–,88.7 µM (inactive),27.7 µM (inactive),> 100 µM (inactive),81.1 µM (inactive),–,63.8 µM (inactive),69 µM (inactive),64 µM (inactive),17 µM (inactive),23.5 µM (inactive),–,–
COc1ccccc1/C=C1\CCC(CCN(C)C)(C2=CCCC2)C1=O (stereo not drawn),21.6 µM (inactive),14.1 µM (inactive),12.8 µM (inactive),–,17.6 µM (inactive),16.6 µM (inactive),19.4 µM (inactive),–,31.6 µM (inactive),16.7 µM (inactive),10.2 µM (inactive),16.1 µM (inactive),–,14.8 µM (inactive),31.6 µM (inactive),18.2 µM (inactive),15.7 µM (inactive),19.5 µM (inactive),–,–
Cc1cc2c(cc1C)[n+]([O-])c(C(=O)CC(=O)C(=O)Nc1ccccc1C(C)C)c(C)[n+]2[O-],> 100 µM (inactive),> 100 µM (inactive),> 100 µM (inactive),–,> 100 µM (inactive),> 100 µM (inactive),> 100 µM (inactive),–,> 100 µM (inactive),> 100 µM (inactive),> 100 µM (inactive),> 100 µM (inactive),–,> 100 µM (inactive),> 100 µM (inactive),> 100 µM (inactive),> 100 µM (inactive),> 100 µM (inactive),–,–
COC(=O)c1ccccc1N(C(=O)c1ccccc1)c1ccccc1C,19.5 µM (inactive),76.6 µM (inactive),30.7 µM (inactive),–,24.8 µM (inactive),27.5 µM (inactive),> 100 µM (inactive),–,32.1 µM (inactive),53.6 µM (inactive),26 µM (inactive),85.5 µM (inactive),–,29.8 µM (inactive),28.2 µM (inactive),32.7 µM (inactive),36.3 µM (inactive),74.3 µM (inactive),–,–
O=C1N[C@H]2[C@H](O)[C@H](O)[C@@H](O)[C@H](O)[C@@H]2c2cc3c(c(O)c21)OCO3 [PANCRATISTATIN],0.0364 µM (active),0.0516 µM (active),0.0434 µM (active),0.0372 µM (active),0.0875 µM (active),0.0583 µM (active),0.0391 µM (active),0.0493 µM (active),0.0445 µM (active),0.673 µM (active),0.0288 µM (active),0.541 µM (active),0.0369 µM (active),0.0457 µM (active),0.106 µM (active),0.0393 µM (active),0.0352 µM (active),0.0375 µM (active),0.0344 µM (active),0.0288 µM (active)
CCCCCCCCC/C=C1\CCC(CN2CCOCC2)C1=O (stereo not drawn),1.67 µM (inactive),4.83 µM (inactive),2.31 µM (inactive),2.64 µM (inactive),4.95 µM (inactive),12 µM (inactive),3.94 µM (inactive),2.08 µM (inactive),3.9 µM (inactive),4.92 µM (inactive),3.73 µM (inactive),1.6 µM (inactive),1.03 µM (active),7.26 µM (inactive),2.38 µM (inactive),2.17 µM (inactive),7.08 µM (inactive),5.61 µM (inactive),2.96 µM (inactive),–
CC1(C(=O)Nc2ccc3cc4ccccc4cc3c2)CC2(C)CC(C)(C1)C(O)NC2=O (stereo not drawn),20.9 µM (inactive),> 100 µM (inactive),> 100 µM (inactive),–,> 100 µM (inactive),> 100 µM (inactive),> 100 µM (inactive),–,> 100 µM (inactive),36.7 µM (inactive),41.6 µM (inactive),> 100 µM (inactive),–,56 µM (inactive),23.6 µM (inactive),> 100 µM (inactive),57.3 µM (inactive),53.1 µM (inactive),–,–
